Eight compounds from patent US7875604B2, “Compounds that inhibit HIV particle formation” (University of Virginia Patent Foundation, priority 2004, dated 2011) can be followed below.

The term IC50 denotes the concentration at which inhibition is half-maximal. High values mean a need for much substance, low ones inhibition by little substance.

The test system of data set [1] is HIV particle formation in 5BD.1 cells. As to the kind of experiment: Six point dose response assay of HIV particle release (p24 ELISA) in 5BD.1 cells. The following applies: for IC50: six point dose response, p24 in 5BD.1 cells, Table 1; for TI (TC50/IC50): TC50 MT4 cells / IC50 5BD.1 cells. The data set is classed as cell-based, HIV-1. From the text: The present invention is directed to a safe quantitative in vitro high-throughput assay to screen library compounds for effects on Rev-dependent p24 production. Two cell lines derived from COS cells provide the means of determining whether a library compound has anti-Rev activity-5BD.1 and 2A.22. These cell lines constitutively express HIV-like particles that contain the HIV core proteins as well as HIV envelope protein. The non-infectious virions created by these cells are secreted into the media, where a simple p24 ELISA can quantitatively determine virion production. Production of these virus-like particles is totally dependent on the expression of the Rev protein (for the 5BD.1 cell line), which is also made in these cell lines, or independent of Rev protein expression (the 2A.22 cell line).
The cell line 5BD.1 was created by transfecting COS cells with the wild type HIV-1 structural and regulatory genes gag, gagpol, rev, and env. Each of these genes is necessary but not sufficient for producing infectious HIV virions. Non-infectious virions are produced in 5BD.1 cells via the same pathways as in CD4^+ cells. Inhibition of Rev with a library compound would therefore have the same effect on viral production in 5BD.1 cells as in CD4^+ cells.
Each of the 192 compounds was then subjected to 3 and 6 point dose response assays in 5BD.1 cells and toxicity testing in the MT-4 T cell line. The dose response assay was performed as follows
• 1. 5BD.1 cells were carried in 2 T175 flasks in medium (IMDM/10% FCS/0.2 mg/ml HygromycinB/1.5 mg/ml G418/0.05 mg/ml gentamycin). Cells were trypsinized and harvested from a 90% confluent flask. • 2. 20,000 cells per well were plated into rows A-G of 8 tissue culture treated clear 96-well plates in 135 μl per well of medium without G418 (assay medium). 135 μl of medium only was added to row H. • 3. The plates were placed into the incubator for one hour. • 4. Compounds were serially diluted 1:3 two times from 1 mM DMSO stocks in DMSO in 96 well polypropylene plates. 8 μl of the DMSO solutions were transferred to another plate and 72 μl of assay medium was added. • 5. 15 μl of each diluted compound was transferred to the cell plates in duplicate with the high (10 μM final concentration in rows A-B, 3 μM concentration in rows C-D, 1 μM concentration in rows E-F and DMSO only in rows G-H). • 6. The plates were then incubated overnight for 16 hours. • 7. In the morning of the next day the medium was removed by hand from all wells. • 8. 135 μl of fresh assay medium was added to each well followed by 15 μl of diluted compounds as described in step 5. • 9. The plates were then incubated for 24 hours and the medium was harvested. p24 ELISA Assay: • 10. Dilute primary antibody to 4 μg/ml in DPBS without calcium and magnesium, add 50 μl per well of a 96 well Maxisorp plate, incubate overnight at 4° C. • 11. Aspirate coating solution, block for 30-60 minutes with 200 μl ELISA buffer (4 mg/ml BSA, 0.01% Tween20 in DPBS without calcium and magnesium). • 12. Wash plates 2×. • 13. Add 50 μl of the supernatants from step 9 above. • 14. Add 15 μl of a 1:750 dilution of biotinylated secondary antibody in 40% lysis buffer/ELISA buffer. • 15. Incubate 2 hours at room temperature with shaking. • 16. Wash plates 3×. • 17. Add 50 μL/well of a 1:10,000 dilution of detection SA-HRP. Incubate at room temperature with shaking for 30 minutes. • 18. Wash plates 3×. Add 50 μL/well of TMB substrate solution to all wells and develop for approximately 15 minutes until blue. • 19. Stop the reaction with 50 μL/well 0.18M sulfuric acid. • 20. Read plate at 450 nm. Toxicity Assays:
The six point dose assay in 5BD.1 cells was used to calculate an IC50 for the compounds and data from the MT-4 toxicity assay allowed a TC50 to be calculated.

Data set [2] deals with U1 cells latently infected with HIV-1. The data set is described as follows: U1 latency activation assay (TNF-α induced, supernatant reverse transcriptase). The conditions noted are these: for TI (TC50/IC50): Table 6. The class given is cell-based. On the procedure: U1 cells were obtained from the AIDS Research and Reference Reagent Program and maintained under standard culture conditions in RPMI 1640 supplemented with 10% fetal bovine serum (heat inactivated), 2 mM L-glutamine, 100 U/mL penicillin and 100 μg/mL streptomycin. U1 cells are derived from the histocytic leukemia cell line U937, and contain an integrated copy of a cytokine and/or phorbol inducible provirus (HIV-1IIIB). Cultures were maintained in such a way as to ensure exponential growth of the populations. Addition of TNF-α to the cell culture induces HIV-1, so that inhibition of virus production indicates an inhibition of a post-integration function of the HIV-1 life cycle. This is where an inhibitor of Rev function would be expected to act. […]
At the time of the assay, cells were collected by centrifugation and counted by hemacytometer. If cell viability by Trypan Blue dye exclusion was less than 70% the assay was terminated. The cells were adjusted to 5×10^4 cells/mL and 100 μL placed in 96 well plates with 100 μL media containing a final concentration of 5 ng/mL TNF-α and the test compound. Cultures were incubated for 3 days and supernatants harvested. Compound toxicity was determined by MTS dye reduction. Virus expression was measured by supernatant reverse transcriptase activity.
Reverse transcriptase was assayed to measure virus particle release as described above for the PBMC assay.
Compounds were tested in the U1 latency assay using the maximum high-test concentration possible based on the supplied stocks which are listed in table 3. Compounds were tested using the maximum high-test concentration possible based on the supplied stocks. Compounds were prepared at a 2× high-test concentration by combining drug stock with tissue culture media at a ratio of 5 μL of drug to 995 μL of media. This 2× high-test sample was subsequently serially diluted in tissue culture media using 1/2 log dilutions. This series of 2× concentrated drug was subsequently diluted 1:1 by combining with an equal volume of cells in media in the 96-well plates used for the assay. Temacrazine a known inhibitor of HIV transcription was used as a control compound that is active in the post-integration part of the HIV life cycle.
Compounds were tested using the maximum high-test concentration possible based on the supplied stocks. Compounds were prepared at a 2× high-test concentration by combining drug stock with tissue culture media at a ratio of 5 μL of drug to 995 μL of media. This 2× high-test (HT) sample was subsequently serially diluted in tissue culture media using 1/2 log dilutions. This series of 2× concentrated drug was subsequently diluted 1:1 by combining with an equal volume of cells in media in the 96-well plates used for the assay.

[3] abbreviates: Human immunodeficiency virus 1, 72 h, U1 cell assay, Table 6, 5 ng/mL TNF-α, 3 days, RT activity.

`COc1ccc2nc(C(F)(F)F)c(C#N)c(N)c2c1` [Compound 104366, 4-amino-6-methoxy-2-(trifluoromethyl)-3-quinolinecarbonitrile]: the results for the 50% inhibitory concentration (IC50) in data set [1] (Human immunodeficiency virus 1) and in data set [2] (setting [3]) were 2500 nM and below 250 nM, respectively. Also, the “TI (TC50/IC50)” value was 11.2 in data set [1] and above 49.6 in data set [2] (U1 cell assay).

For the compound `CCc1c(C)nc2sc(C(N)=O)c(N)c2c1C` [Compound 103833, 3-amino-5-ethyl-4,6-dimethylthieno[2,3-b]pyridine-2-carboxamide], the IC50 in data set [1] (Human immunodeficiency virus 1) is 900 nM; in data set [2] (setting [3]), 400 nM. In addition, the “TI (TC50/IC50)” value in data set [1] is reported as 35.6; in data set [2] (U1 cell assay), above 94.

Consider `CS(=O)(=O)c1ncc(-c2ccc(Br)cc2)cn1` [Compound 107129, -(4-bromophenyl)-2-(methylsulfonyl)pyrimidine], for which the IC50 in data set [1] (Human immunodeficiency virus 1) is 250 nM; in data set [2] (setting [3]), above 53000 nM. For the same compound, in data set [1], the “TI (TC50/IC50)” value is 40.0.

With `COc1ccc2cc3c(N)n[nH]c3nc2c1` [Compound 89246, 7-methoxy-1H-pyrazolo[3,4-b]quinolin-3-ylamine], the IC50 in data set [1] (Human immunodeficiency virus 1) is 900 nM; in data set [2] (setting [3]), 240 nM; in data set [2] (Human immunodeficiency virus 1, U1 cell assay, analogs, Table 8), below 172 nM. Also, the “TI (TC50/IC50)” value stood at 22.22 in data set [1] and 102 in data set [2] (U1 cell assay).

Compound `CCc1c(C(=O)Nc2ccccc2)c(C)nc2sc(C(N)=O)c(N)c12` [Compound 75168, 3-amino-4-ethyl-6-methyl-N˜5˜-phenylthieno[2,3-b]pyridine-2,5-dicarboxamide] displayed an IC50 in data set [1] (Human immunodeficiency virus 1) of 3000 nM. Also, the “TI (TC50/IC50)” value in data set [1] is reported as above 33.3.

As to “2-chloro-N-(4-methylphenyl)-4-(trifluoromethyl)-1,3-thazole-5-carboxamide [Compound 91161]”, the “TI (TC50/IC50)” value was found to be 9.47 in data set [1] and 1.35 in data set [2] (U1 cell assay). The IC50 in data set [1] is 1900 nM; in data set [2] (U1 cell assay, Table 6, 5 ng/mL TNF-α, 3 days, RT activity), 16500 nM.

Take `COc1cccc(NC(=O)c2cc(Cl)nnc2Cl)c1` [Compound 107740, 3,6-dichloro-N-(3-methoxyphenyl)-4-pyridazinecarboxamide]: the IC50 in data set [1] (Human immunodeficiency virus 1) was 4900 nM; in data set [2] (setting [3]) it was 1100 nM. For the same compound, the results for the “TI (TC50/IC50)” value in data set [1] and in data set [2] (U1 cell assay) were 10.2 and above 26.6, respectively.

Take `Fc1ccc(Nc2ncnc3ccccc23)cc1Cl` [Compound 109020, N-(3-chloro-4-fluorophenyl)-N-(4-quinazolinyl)amine]: the IC50 in data set [1] (Human immunodeficiency virus 1) is 3000 nM; in data set [2] (setting [3]), 270 nM. Moreover, the “TI (TC50/IC50)” value was 33.3 in data set [1] and above 151 in data set [2] (U1 cell assay).
